Experimental data reported in patent publication US12109266B2, “Modulating gabarap to modulate immunogenic cell death” (Dana-Farber Cancer Institute, Inc., priority 2020, dated 2024).
Entries after “also recorded” stand apart in the source; their conditions may differ.

Key:
5TGM1 MM cells = assay: Phagocytosis assay of MM cells by JAWSII DCs; format: cell-based, murine
Method: Mo-DCs were generated from CD14+ peripheral blood monocytes were positively selected using magnetic beads (Miltenyi Biotec) and cultured for 6 days in mo-DC differentiation medium containing GM-CSF and IL-4 (130-094-812; Miltenyi Biotec) to generate Mo-DCs. AMO1, KMS11 and H929 cells lines, as well as patient MM cells, were stained with CellTrace™ Far Red (ThermoFisher Scientific), cultured with or without BTZ (for 16 h), and then incubated in 48-well plates for 4 h at 1:1 ratio with CellTrace™ CFSE stained Mo-DCs. Cells were then collected, and phagocytosis analysis was performed by flow cytometry and confocal microscopy. Analagous phagocytosis experiments was performed using 5TGM1 murine MM and immature murine DC line JAWSII.
Collected cells were analyzed using the BD LRSFortessa™ X-20 flow cytometer. Mo-DCs that engulfed MM cells were CFSE and FAR-RED double positive. Fold increase in percentage of double positive DCs after co-culture with BTZ treated vs untreated MM cells was compared. […]
Flow cytometry-based assay: Collected cells were analyzed using the BD LRSFortessa X-20 flow cytometer. […]
Confocal microscopy-based assay: 5TGM1 cells (15000) were cytospun for 7 min at 300 rpm, fixed in 4% paraformaldehyde for 20 min at RT, and washed three times with 1% FBS in PBS. […] Slides were examined using Yokogawa Spinning Disk Confocal/TIRF System, and analyzed with ImageJ software.

5TGM1 tumors = assay: In vivo tumor growth analysis; set-up: species or system mouse
Method: (§1) 6-week old female immunodeficient NOD.CB17-Prkdcscid/NCrCrl (NOD/SCID) mice (Charles River) and immunocompetent C57BL/KaLwRijHsd (Envigo) mice were housed in an animal facility at the Dana-Farber Cancer Institute (DFCI). All experiments were performed after approval by the Animal Ethics Committee of the DFCI and performed using institutional guidelines.
To assess the effect of BTZ in the absence of an immune system, NOD/SCID mice were subcutaneously injected with 1×10^6 5TGM1 WT cells in a 1:1 ratio with Matrigel® (Corning); to assess BTZ in an immunocompetent host, C57BL/KaLwRijHsd mice were injected with 1×10^6 5TGM1 either WT or calrKO in the same ratio with Matrigel®. When tumor became measurable, mice (5/group) were randomized to receive either PBS or BTZ administered intra peritoneally (i.p.) 0.5 mg/kg twice/week for 2 weeks. Tumor sizes were measured and mice were sacrificed when tumors reached 2 cm in diameter or ulceration or major compromise in quality of life. A parallel experiment was performed to allow for tumor harvesting after two injections i.p. of BTZ for RNA-seq analysis, as detailed below.
as §1, with “(NOD/SCID)” for “(NOD/SCID) mice”, “in the” for “in an”, “at DFCI.” for “at the Dana-Farber Cancer Institute (DFCI).”
NOD/SCID and C57BL/KaLwRijHsd mice were subcutaneously (sc) injected with 1×10^6 5TGM1 either WT or Calr^KO cells in PBS. When tumor became measurable, mice were randomized to receive either PBS or BTZ administered intra peritoneally (i.p.) 0.5 mg/kg twice/week for 2 weeks. Tumor sizes were measured as previously described (46), and mice were sacrificed when tumors reached 2 cm in diameter or ulceration or major compromise in quality of life. A parallel experiment was performed to allow for tumor harvesting after two injections ip of BTZ for RNA-seq analysis, as detailed below. For BTZ and STING agonist combination studies, C57BL/KaLwRijHsd (n=5/group) and SCID/NOD (n=6/group) mice bearing 5TGM1 WT and C57BL/KaLwRijHsd mice (n=5/group) bearing 5TGM1 Sting^KO tumors were randomized to receive: PBS, BTZ (0.375 mg/kg twice a week for 2 weeks, i.p.), ADU-S100 (100 μg) administered in the peritumoral area (day 1 and 2), or a combination. Tumor sizes were measured as described above. A parallel experiment in C57BL/KaLwRijHsd mice was performed to allow for tumor harvesting after one administration of either BTZ or ADU-S100. Tumors were fixed in 10% formalin for 24 h, and then maintained in 70% ethanol prior to paraffin embedding and processing for IHC to detect CD3 (#nb600 Ab, Novus Bio).

cGAS/STING pathway = assay: Western blot of cGAS/STING pathway; format: cell-based, human
Method: Cell lysis was performed in RIPA buffer (Boston Bio Products) supplemented with Halt protease and phosphatase inhibitor cocktail (ThermoFisher Scientific). SDS-PAGE was performed on NuPage Bis-Tris gels (ThermoFisher Scientific) using MOPS or MES running buffer. Gels were dry transferred onto 0.45 μm nitrocellulose membranes using the iBlot® Dry Blotting System (ThermoFisher Scientific). The following Abs were purchased from Cell Signaling Technology: EIF2A (#5324), p-EIF2A (#3398), ATF4 (#11815), CHOP (2895), CALR (#12238), cGAS (#15102), TBK1 (#3504), pTBK1 (#5483), pIRF3 (#29047), STING (#13647). GAPDH (#2118) and B-ACTIN (#4970) were used as loading controls.

With `CC(C)C[C@H](NC(=O)[C@H](Cc1ccccc1)NC(=O)c1cnccn1)B(O)O` [BTZ, bortezomib] the “phagocytosis of BTZ-treated MM cells by DCs” value (5TGM1 MM cells; 5TGM1 Calr^KO cells) was “calreticulin is necessary for induction of ICD by BTZ; also recorded: abrogated in vitro when DCs were co-cultured with CRT^KOMM cells; also recorded: inhibited”, the “phagocytosis of BTZ-treated MM cells by DCs” value (5TGM1 MM cells; 5TGM1 WT, BTZ 16 h, then 4 h co-culture with mDCs) was “engulfed by monocyte-derived DCs after 4 h of co-culture” and the tumor growth (5TGM1 tumors; 5TGM1 Calr^KO tumors in immunocompetent mice, BTZ 0.5 mg/kg twice/week for 2 weeks) was “antagonized in CALR^KO tumors; also recorded: abrogated in mice bearing CRT^KO tumors; also recorded: abrogated in immunocompetent mice bearing 5TGM1 Calr^KO tumors”. The anti-tumor activity (5TGM1 tumors; 5TGM1 Sting^KO tumors in immunocompetent mice) was “significantly abrogated against tumors lacking Sting; also recorded: significantly reduced in vivo against multiple myeloma tumors lacking Sting”, the tumor growth (5TGM1 tumors; 5TGM1 WT in immunocompetent C57BL/KaLwRij mice, BTZ 0.5 mg/kg twice/week for 2 weeks i.p.) was “induces tumor regression in the presence of the immune system; also recorded: more potent 5TGM1 tumor cell shrinkage in immunocompetent hosts; also recorded: inhibited growth of 5TGM1 WT cells engrafted in immunocompetent (C57BL/KaLwRij) mice (FIG. 19A) to a greater extent than when these cells were engrafted in immunodeficient hosts; also recorded: induces ICD in a syngeneic murine model of MM” and the anti-tumor effects (5TGM1 tumors; 5TGM1 WT in immunodeficient NOD/SCID mice, BTZ 0.375 mg/kg, ADU-S100 100 ug day 1 and 2) was “abrogated the anti-tumor effects”. The tumor growth (5TGM1 tumors; 5TGM1 WT in immunodeficient SCID/NOD mice, BTZ 0.5 mg/kg twice/week for 2 weeks i.p.) was “can efficiently delay tumor growth in immunodeficient mice”, the “cGAS/STING pathway activation (cGAS, pTBK1, pIRF3)” value (cGAS/STING pathway; AMO1 (BTZ 5-10 nM, 16 h) and NCI-H929 WT) was “induces accumulation of the cytosolic DNA sensor cGAS; also recorded: induces IFN-I signaling and promotes T cell activation via cGAS/STING pathway” and the cGAS level (cGAS/STING pathway; AMO1 STING^KO, BTZ 5 nM) was “significantly accumulated cGAS”. For the same molecule, the p-TBK1 downstream signaling (cGAS/STING pathway; AMO1 STING^KO, BTZ 5 nM) was “blocked activation of downstream signaling including p-TBK1”.
